The source of these data is patent publication US10233426B2, “Method for inducing cardiac differentiation of pluripotent stem cell with low-molecular compounds” (KYOTO UNIVERSITY, priority 2014, dated 2019).

The structures appear in SMILES notation.

For assay [1], the system named is monkey ES cell line transfected with an αMHC promoter-driven GFP gene. As to the kind of experiment: Chemical screening: GFP fluorometry for cardiac differentiation of monkey ES cells. Format: cell-based, cynomolgus monkey. Conditions: alone or in combination with KY02111 (10 μM in late phase).
Assay [2] has the same test system. Described as above. The format is cell-based, cynomolgus monkey. Conditions: for intensity of GFP fluorescence relative to control culture (KY02111 only, assigned to one): GFP fluorometry day 9. As for the experimental part:
Pluripotent stem cells were cultured in culture media to which the test compounds were added in different concentrations (0.3 μM, 1 μM, 3 μM and 10 μM) in early phase and late phase of differentiation of the cells. Cells from the culture were subjected to GFP fluorometry in accordance with the cardiac differentiation protocol shown in FIG. 1a. Besides the test compounds, 10 μM KY02111 was included in the culture media for the late phase differentiation. The intensity of GFP fluorescence determined in the cells from the control culture, which was cultured with no test compound other than KY02111, was assigned to one.
The scheme of chemical screening is illustrated in FIG. 1a. Compounds were screened for the ability of increasing GFP fluorescence compared with the control (KY02111 alone) using a monkey ES cell line transfected with an αMHC promoter-driven GFP gene (Minami et al., Cell Reports 2, 1448-1460, 2012, which is incorporated herein by reference). The ES cell line was derived from a monkey ES cell line (cynomolgus monkey CMK6.4) by transfecting the cells with a vector which expresses green fluorescent protein (GFP) under control by a promoter of α-MHC gene (a marker of cardiac differentiation). The cells were plated at 4.0×10^5 cells per well in 6 well plates (Asahi Glass/5816-006: Ezview culture plates) and cultured for nine days in an IMDM-based medium for cardiac differentiation (200 ml IMDM medium (Sigma 13390), with 50 ml calf serum (GIBCO 10099-141), 2.5 ml MEM non-essential amino acid solution (Sigma M7145), 2.5 ml penicillin-streptomycin ([…]), 2.5 ml 200 mM L-glutamine, 2 ul 2-mercaptoethanol (Sigma M7522), and 255 ul 5N NaOH). Each test compound was added to the medium at different concentrations in the early phase (day 0 to day 3) and the late phase (day 4 to day 7) of cardiac differentiation. Cells obtained from the culture on day 9 were subjected to GFP fluorometry with a Metamorph imaging system. […]

Assay [3] has as its system mesoderm-related genes (MSGN1, T, MIXL1 and NODAL). Description: Quantitative PCR for expression of mesoderm-related genes under PFCD condition. Format: cell-based, human. Conditions: IMR90-1; for expression level of NODAL / expression of MSGN1, T and MIXL1: 1 μM XAV939, 0.3 μM A419259, 10 μM AG1478, 3 μM KY03-I, day 3 to day 4, mRNA on day 4, FIG. 3f; for expression of the mesoderm-related genes (MSGN1, T, MIXL1 and NODAL) vs DMSO control: 2 μM CHIR99021 or 0.3 μM PMA alone, day 0 to day 2, mRNA on day 2, FIG. 3e. As to the method: A human iPS cell line (IMR90-1 cultured on MEF feeder) was cultured in PFCD culture media, to which 2 μM CHIR99021 or 0.3 μM PMA or the both (CHIR99021+PMA) were added for early phase of cardiac differentiation (day 0 to day 2). On day 2, mRNA was extracted the cultured cells and analyzed by quantitative PCR for the expression of mesoderm-related genes (MSGN1, T, MIXL1 and NODAL) (FIG. 3e). As a control, cells were cultured similarly, but with DMSO in place of the test compounds. The gene expression level in the control cells was assigned to one. […] In contrast, the expression of the genes was reduced when PMA was added to the culture. However, the reduction in gene expression by PMA was counteracted and reversed when CHIR99021 was added in combination with PMA (in accordance with the optimal PFCD condition).
A human iPS cell line (IMR90-1 from culture on MEF feeder) was cultured in PFCD media with one of 1 μM XAV939, 0.3 μM A419259, 10 μM AG1478 or 3 μM KY03-I, or all of them (XAV939+A419259+AG1478+KY03-I) in late phase of cardiac differentiation (day 3 to day 4). On day 4, mRNA was extracted from the cultured cells and analyzed by quantitative PCR for the expression of mesoderm-related genes (MSGN1, T, MIXL1 and NODAL) (FIG. 3f).

The subject of another assay is IMR90-1. As to the kind of experiment: Count of differentiated cardiomyocytes after culture under PFCD condition. The format is cell-based, human. The settings on record: IMR90-1, PFCD suspension culture, day 14; FIG. 3d. An excerpt: The differentiated cardiomyocytes was counted in the cell population from suspension or adhesion culture under PFCD condition of the pluripotent stem cell lines. The counts of differentiated cells per 2×10^6 undifferentiated cells are shown in the graph of FIG. 2d. The differentiation was more induced by suspension culture than adhesion culture in most of the stem cell lines. The cell count, as well as the flow cytometry, was taken on day 14.
To determine the contribution of each of the six compounds (CHIR99021, PMA, KY03-I, XAV939, AG1478, and A419259) to PFCD under suspension culture condition, IMR90-1 (from culture on MEF feeder) was cultured in media to which different combinations of five of the compounds were added. Cells from the culture were analyzed by flow cytometry using a cTnT antibody for staining. A part of the cells from culture were not treated with the primary antibody to serve as a negative control. Thirty thousand cells from each sample were loaded to a flow cytometer FACSCantoII.
The differentiated cardiomyocytes was counted in a cultured cell population corresponding to that of FIG. 3c. […] The cell count, as well as the flow cytometry, was taken on day 14.

Assay [4] has as its system cells from suspension or adhesion culture of IMR90-1 under PFCD condition. Description: Whole-cell patch clamp electrophysiology of PFCD cardiomyocytes. The settings on record: IMR90-1 PFCD cardiomyocytes, day 30; FIG. 4k. Format: cell-based, human. From the text:
Comparison was made between cells from suspension culture and cells from adhesion culture in terms of electrophysiology of cells by using a whole-cell patch clamp technique. For this purpose, IMR90-1 (from culture on MEF feeder) was suspension or adhesion cultured under PFDC condition. Cells were harvested on day 30 for the analysis. In action potential waveforms in the cells from suspension culture and the cells from adhesion culture, there was no significant difference between the cell populations in terms of RP (resting potential; around −60 mV) (FIGS. 4d and 4e) and APD90 (action potential duration; about 0.7 sec) (FIGS. 4d and 4g). […] ICa (Voltage-gated Ca channel current) was also higher in the cells from suspension culture than the cells from adhesion culture, but the difference was not significant (FIG. 4i). […] IKs (KCQN1 channel current) was higher in the cells from suspension culture than the cells from adhesion culture (FIG. 4j).

Assay [5] is described as follows: Induction of cardiac differentiation by a procedure as described in the Examples in WO 2012/026491. The format is cell-based.
The test system of assay [6] is monkey ES cell line transfected with an α-MHC promoter-driven GFP gene. Conditions: culture with PMA (all six compounds); without PMA (other five compounds) only weak fluorescence; FIG. 3a. From the text: A monkey ES cell line transfected with an α-MHC promoter-driven GFP gene was suspension cultured under PFCD condition in culture media with PMA (with all the six compounds added) or without PMA (with the five compounds other than PMA added) (FIG. 2a). The cells from the culture with PMA are shown in the left-hand micrographs, and the cells from the culture without PMA are shown in the right-hand micrographs.

The mark [7] stands for this setting: 10 to 30 μM in late phase, FIG. 1d.

In the case of `COc1cc2ncnc(Nc3cccc(Cl)c3)c2cc1OC` [AG1478], the “increase of cardiac differentiation” value in assay [1] (setting [7]) is “two- to three-fold”. Further, the “intensity of GFP fluorescence relative to control culture (KY02111 only, assigned to one)” value in assay [2] (test compound 0.3 μM in Early phase (day 0 to day 3), 10 μM KY02111 in late phase) was 0.97; in assay [2] (test compound 0.3 μM in Late phase (day 4 to day 7) with 10 μM KY02111) it was 1.24; in assay [2] (test compound 1 μM in Early phase (day 0 to day 3), 10 μM KY02111 in late phase) it was 0.89; in assay [2] (test compound 1 μM in Late phase (day 4 to day 7) with 10 μM KY02111) it was 1.53; in assay [2] (test compound 3 μM in Early phase (day 0 to day 3), 10 μM KY02111 in late phase) it was 0.35; in assay [2] (test compound 3 μM in Late phase (day 4 to day 7) with 10 μM KY02111), 2.03. Moreover, the “intensity of GFP fluorescence relative to control culture (KY02111 only, assigned to one)” value in assay [2] (test compound 10 μM in Early phase (day 0 to day 3), 10 μM KY02111 in late phase) is 0.05; in assay [2] (test compound 10 μM in Late phase (day 4 to day 7) with 10 μM KY02111), 3.24. Further, in assay [2] (under appropriate conditions, Table 1), the “cardiac differentiation (screening conclusion)” value is “promoted”. In assay [3], the “expression level of NODAL” value is “not significantly different”. Also, the “expression of MSGN1, T and MIXL1” value in assay [3] is on record as “reduced”.

For the compound `Cc1c[nH]c(-c2cnc(NCCNc3ccc(C#N)cn3)nc2-c2ccc(Cl)cc2Cl)n1` [CHIR99021], in the assay on IMR90-1, the “cardiomyocyte count on omission of the compound from the six-compound culture” value is recorded as “significant reduction”. In assay [3], the “expression of the mesoderm-related genes (MSGN1, T, MIXL1 and NODAL) vs DMSO control” value was “significantly increased”.

With `CCS(=O)(=O)N(C)[C@H]1c2cc(C#N)ccc2OC(C)(C)[C@@H]1O` [Chromanol293B], the “increase in APD90, cells from suspension culture compared with cells from adhesion culture” value in assay [4] was “significantly higher”.

In the case of `Cc1cccc(CCN2CCC(C(=O)c3ccc(NS(C)(=O)=O)cc3)CC2)n1` [E4031], the “increase in APD90, cells from suspension culture compared with cells from adhesion culture” value in assay [4] is on record as “not significantly different”.

On to `COc1ccc(CCC(=O)Nc2nc3ccc(I)cc3s2)cc1OC` [KY02-I, 2-(3-(3,4-dimethoxyphenyl)propanamido)-6-iodobenzothiazole], for which the “effect of inducing cardiac differentiation” value in assay [5] was “found to have the effect of inducing cardiac differentiation”.

Turning to `COc1ccc(CCCC(=O)Nc2nc3ccc(I)cc3s2)cc1OC` [KY03-I, 2-(4-(3,4-dimethoxyphenyl)propanamido)-6-iodobenzothiazole], the “effect of inducing cardiac differentiation” value in assay [5] was “found to have the effect of inducing cardiac differentiation”. In assay [3], the “expression level of NODAL” value is given as “not significantly different”; the “expression of MSGN1, T and MIXL1” value is recorded as “reduced”.

As to `CCCCCCCCCCCCCC(=O)O[C@@H]1[C@@H](C)[C@@]2(O)[C@@H](C=C(CO)C[C@]3(O)C(=O)C(C)=C[C@@H]23)[C@@H]2C(C)(C)[C@]12OC(C)=O` [PMA, Phorbol 12-myristate 13-acetate], in the assay with IMR90-1, the “cardiomyocyte count on omission of the compound from the six-compound culture” value is recorded as “significant reduction”. Also, the “increase of cardiac differentiation” value in assay [1] (0.03 to 0.3 μM in early phase, FIG. 1c) is “three- to eight-fold”. In addition, the “GFP fluorescence of colonies” value in assay [6] is “mostly GFP-positive”. In addition, the “expression of the mesoderm-related genes (MSGN1, T, MIXL1 and NODAL) vs DMSO control” value in assay [3] is “reduced”.

On to `CCCOc1ccc(CCC(=O)Nc2nc3ccc(I)cc3s2)cc1OC` [SO2077, 2-(3-(3-methoxy-4-propoxyphenyl)propanamido)-6-iodobenzothiazole], for which the “effect of inducing cardiac differentiation” value in assay [5] is listed as “found to have the effect of inducing cardiac differentiation”.

Take `COc1cc2ncnc(Nc3ccc(F)c(Cl)c3)c2cc1OCCCN1CCOCC1` [gefitinib]: in assay [1] (setting [7]), the “increase of cardiac differentiation” value was “two- to three-fold”.
